For seven compounds, IC50 results are on record in BindingDB's records for doi:10.1021/jm950568w (Universita Di Roma, 1996).

Each structure is given as a SMILES string.

What is called IC50 is the concentration needed to halve the response being measured.

T1 sequence (P04584 613-1167, looked up, stated change not applied): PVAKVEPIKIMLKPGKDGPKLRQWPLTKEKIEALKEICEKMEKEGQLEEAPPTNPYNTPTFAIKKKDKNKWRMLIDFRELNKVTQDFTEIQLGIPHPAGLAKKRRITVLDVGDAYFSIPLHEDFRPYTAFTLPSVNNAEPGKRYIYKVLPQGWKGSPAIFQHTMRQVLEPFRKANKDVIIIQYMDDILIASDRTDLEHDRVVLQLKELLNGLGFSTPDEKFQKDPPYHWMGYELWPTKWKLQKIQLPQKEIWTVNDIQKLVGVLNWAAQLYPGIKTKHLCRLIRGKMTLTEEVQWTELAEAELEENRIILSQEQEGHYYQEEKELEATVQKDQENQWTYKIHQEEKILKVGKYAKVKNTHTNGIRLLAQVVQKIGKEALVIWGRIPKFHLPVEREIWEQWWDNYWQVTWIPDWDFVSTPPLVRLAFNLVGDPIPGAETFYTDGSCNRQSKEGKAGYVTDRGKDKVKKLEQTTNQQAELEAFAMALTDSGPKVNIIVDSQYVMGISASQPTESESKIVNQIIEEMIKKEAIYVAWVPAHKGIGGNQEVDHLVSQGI
T1 sequence (P04584 618-1043, looked up, stated change not applied): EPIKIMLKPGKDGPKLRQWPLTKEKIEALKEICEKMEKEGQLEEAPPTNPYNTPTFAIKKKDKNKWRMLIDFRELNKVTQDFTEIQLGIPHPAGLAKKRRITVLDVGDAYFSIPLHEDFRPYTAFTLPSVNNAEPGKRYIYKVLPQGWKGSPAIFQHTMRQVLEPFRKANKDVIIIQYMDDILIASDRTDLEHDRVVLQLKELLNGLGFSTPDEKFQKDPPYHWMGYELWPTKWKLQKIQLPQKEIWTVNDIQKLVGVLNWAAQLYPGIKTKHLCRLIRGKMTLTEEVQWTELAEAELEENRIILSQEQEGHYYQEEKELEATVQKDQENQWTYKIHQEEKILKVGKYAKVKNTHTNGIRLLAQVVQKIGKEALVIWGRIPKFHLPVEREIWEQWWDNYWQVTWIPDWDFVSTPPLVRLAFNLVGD

One experiment concerns the target T1, Gag-Pol polyprotein [613-1167,R896S,E946D,S1117V]/[618-1043,R896S,E946D] (Human immunodeficiency virus 2, UniProt P04584, E946D/R896S/S1117V).
T1 construct: 613-1167; 618-1043
Nature of the experiment: HIV RT Assay. The following applies: pH 7.8; 37 °C.
Compound `Cc1ccnc2c1NC(=O)c1cccnc1N2C1CC1` [BI-RG-587] gave an IC50 of more than 20 µM. Still for that read-out and setting: to `CCOC(=O)c1cccn1S(=O)(=O)c1cc(Cl)ccc1N` [ethyl 1-[(2-amino-5-chlorobenzene)sulfonyl]-1H-pyrrole-2-carboxylate] belongs more than 20 µM; to `COC(=O)c1cccn1S(=O)(=O)c1cc(Cl)ccc1N` [methyl 1-[(2-amino-5-chlorobenzene)sulfonyl]-1H-pyrrole-2-carboxylate], more than 20 µM.

The target in a further experiment is T2, Gag-Pol polyprotein [588-1027]/[588-1147] (Human immunodeficiency virus 1, UniProt P04585).
T2 construct: 588-1027; 588-1147
Nature of the experiment: HIV RT Assay. The following applies: pH 7.8; 37 °C.
Turning to `CCOC(=O)c1cccn1S(=O)(=O)c1cc(Cl)ccc1NC=O` [Ethyl 1-[(5-Chloro-2-formamidophenyl)sulfonyl]-1Hpyrrole-2-carboxylate], the IC50 is more than 20 µM. On the same count and under the same terms, to `CCOC(=O)c1cccn1S(=O)(=O)c1cc(Cl)ccc1NC(=O)CC` [Ethyl 1-[(5-Chloro-2-propionamidophenyl)sulfonyl]-1H-pyrrole-2-carboxylate] belongs more than 20 µM.

`CCOC(=O)c1cccn1S(=O)(=O)c1cc(Cl)ccc1NC(C)=O` [ethyl 1-[(5-chloro-2-acetamidobenzene)sulfonyl]-1H-pyrrole-2-carboxylate] showed an IC50 of more than 20 µM.

`CCOC(=O)CC(=O)Nc1ccc(Cl)cc1S(=O)(=O)n1cccc1C(=O)OCC` [ethyl 1-{[5-chloro-2-(ethyl 2-formamidoacetate)benzene]sulfonyl}-1H-pyrrole-2-carboxylate] returned an IC50 of more than 20 µM.
